Source: patent publication US4895852A, “Antitumor alkaloids” (Harbor Branch Oceanographic Institution, Inc., priority 1987, dated 1990)
Values after ≈ are worked out from the molar mass of the structure shown.

System: P388 mouse leukemia cells
Experiment: P388 mouse leukemia cell assay
Format: cell-based
Details: for minimal effective concentration: P388, 48 h, summary sentence on Table 1, mouse leukemia cells, read-out: good antitumor activity at concentrations of at least (against mouse leukemia cells); for IC50: P388 mouse leukemia cells, 48 hours, 37°, 10% CO2
Experimental: P388 mouse leukemia cells are grown in Dulbecco MEM medium with 10% horse serum, 4mM glutamine, and 20ug/ml gentamycin (Biologos, Inc.). Cells are incubated in 10% CO2 and subcultured 2 times per week.
1. Add compound to each well of a 24-well plate or tube and allow solvent to evaporate to dryness.
2. Add 2ml (1.2×10^5) cells to each well or tube and mix.
3. Incubate in 10% CO2 , at 37° for 48 hours.
4. Read platees with an inverted microscope, scoring activity from 1+ to 4+ as follows: ND (not detectable), >90%; 1+, 75-90%; 2+, 50-74%; 3+, 25-49%; 4+, <25% of control growth. Cell counts are performed on each tube and results are reported as percent of control. Alternatively, scoring may be expressed as IC50 which represents the minimum concentration of the composition required to inhibit 50% of the cell growth on the plate. […]

| Compound | minimal effective concentration [µg/mL] | IC50 [µg/mL] |
| --- | --- | --- |
| O=C1CCCN2C(CC1)CC13CN4CCCCC=CCCC(O)(C=C(c5nccc6c5[nH]c5ccccc56)C1CC4)C23 (stereo not shown) [Manzamine E] | ≥ 5 | 5 (≈ 8.85 µM) |
| O=C1CCCN2[C@@H](CC1)C[C@]13CN4CCCC/C=C\CC[C@](O)(C=C(c5nccc6c5[nH]c5c(O)cccc56)C1CC4)[C@H]23 (stereo partly shown) [Manzamine F] | ≥ 5 | 5 (≈ 8.61 µM) |
